# Results published in PubChem BioAssay (NCI).
#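 Assay format: 96-well plates, 48-hour exposure. TGI is the concentration that stops growth completely.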
# Assays:
# Test in all cases: growth of human tumour cells (NCI), 48 h
# [1] = system: 786-0 renal
# [2] = system: NCI/ADR-RES ovarian
# [3] = system: HL-60(TB) leukemia
# [4] = system: DU-145 prostate
# [5] = system: SNB-75 CNS
# [6] = system: SF-539 CNS
# [7] = system: BT-549 breast
# [8] = system: PC-3 prostate
# [9] = system: UACC-62 melanoma
# [10] = system: COLO 205 colon
# [11] = system: OVCAR-4 ovarian
# [12] = system: HCT-116 colon
# [13] = system: NCI-H23 lung
# [14] = system: A498 renal
# [15] = system: SR leukemia
SMILES,TGI [1] [µM],TGI [2] [µM],TGI [3] [µM],TGI [4] [µM],TGI [5] [µM],TGI [6] [µM],TGI [7] [µM],TGI [8] [µM],TGI [9] [µM],TGI [10] [µM],TGI [11] [µM],TGI [12] [µM],TGI [13] [µM],TGI [14] [µM],TGI [15] [µM]
O=c1oc2ccccc2c(O)c1C(c1ccc2ccccc2c1)c1c(O)c2ccccc2oc1=O,74.7,38.5,75.5,> 100,48.7,68.9,60.8,> 100,> 100,78.2,> 100,> 100,68.8,> 100,
CSC1=N/C(=C\c2ccc(Cl)cc2)C(=O)N1CN1CCOCC1,> 100,> 100,,> 100,> 100,,,> 100,> 100,> 100,61.6,> 100,> 100,> 100,> 100
Cc1nc2c(s/c(=N\N)n2-c2ccccc2)c(=O)[nH]1,> 100,,> 100,,> 100,> 100,,,> 100,> 100,> 100,> 100,> 100,> 100,> 100
Cc1cc(Cl)ccc1NC(=O)/C(CC(=O)CC(c1ccccc1)c1c(O)c2ccccc2oc1=O)=N\O (stereo not drawn),> 100,> 100,> 100,> 100,> 100,> 100,> 100,> 100,> 100,> 100,> 100,> 100,> 100,,
O=C(/C=C/c1c(O)c2ccccc2[nH]c1=O)CC(=O)C(=O)Nc1cccc(O)c1,> 100,> 100,> 100,> 100,> 100,> 100,> 100,> 100,> 100,> 100,> 100,> 100,> 100,> 100,
COc1ccc(-c2cc(=O)c3c(O)c(OC)c(O)cc3o2)cc1O,> 52.7,> 21.2,14.2,> 100,60,21.9,> 85.5,> 88.1,31.4,59.6,> 100,32.4,> 100,65.8,
c1cc2[se][se]c3c4cccc5[se][se]c(c(c1)c23)c54,> 100,,> 100,,> 100,> 100,,,> 100,> 100,> 100,> 100,> 100,> 100,> 100
O=C1OC(c2ccccc2)(c2ccccc2)CC1CN1CCOCC1 (stereo not drawn),30.4,,28.3,,49.1,32.6,,,> 100,18.4,40.9,25.3,43.9,> 100,8.43
CC(C)(C)c1cc(N=NC(=S)NCc2ccccc2)cc(C(C)(C)C)c1O,> 100,,> 100,,99.6,> 100,,,> 100,> 100,> 100,> 100,> 100,> 100,> 100
CCCN(CCC)C(=S)N/N=C/c1cccc(C)n1,1.37,1.07,0.384,> 100,0.991,0.545,,62.9,9.45,0.0435,3.21,0.196,> 100,0.473,0.376
CC(=O)/C(=C/N1C(=O)CC(=O)NC1=S)C(=O)Nc1ccccc1C,50.8,> 100,> 100,> 100,> 100,> 100,> 100,,83.8,> 100,> 100,> 100,> 100,> 100,
CC(C(O)c1ccccc1)N(C)/N=N/c1nc2c([nH]1)c(=O)n(C)c(=O)n2C (stereo not drawn),> 100,> 100,> 100,> 100,> 100,,> 100,> 100,> 100,> 100,> 100,> 100,> 100,,
O=C(O/N=C1/CCC/C1=C\c1ccccc1)c1ccccc1,> 100,,> 100,,> 100,> 100,,,> 100,> 100,> 100,> 100,> 100,> 100,> 100
O=C(/C=C(\O)C(=O)O)/C=C(\O)c1ccccc1Cl,> 100,,> 100,,> 100,> 100,,,> 100,> 100,> 100,> 100,> 100,> 100,> 100
CC(=O)CCC(=O)CC(O)(C(F)(F)F)C(F)(F)F,30.2,58.7,38.1,37.8,65.2,31.9,,,32,34.4,37,31.3,43.2,17.6,32
COC(=O)c1cccc(C)c1C1CN=NC12Cc1c(ccc(C)c1C)C2=O (stereo not drawn),> 100,> 100,37.1,> 100,> 100,> 100,,,,,> 100,> 100,> 100,> 100,> 100
CC1(C)C[C@H]2C3=CC[C@@H]4[C@@]5(C)CC[C@H](O)C(C)(C)[C@@H]5CC[C@@]4(C)[C@]3(C)C[C@@H](O)[C@@]23C[C@@H]1OC3=O,> 100,> 100,> 100,> 100,> 100,> 100,,> 100,> 100,> 100,> 100,> 100,> 100,> 100,> 100
NC(=Nc1ccc(Cl)c(Cl)c1)c1ccccc1N,> 100,95.5,52,> 100,75.7,,> 100,92.4,> 100,52.8,> 100,57.1,> 100,55.1,
Cc1ccc(C2=NN(C)COC2C(F)(F)F)cc1 (stereo not drawn),> 100,,> 100,,> 100,> 100,,,> 100,> 100,> 100,> 100,> 100,,> 100
CC(C)C1=CC(=O)C(C)(C2=NC(C)(C)CO2)c2ccccc21 (stereo not drawn),> 100,,> 100,,> 100,> 100,,,> 100,> 100,> 100,> 100,> 100,,> 100
Cn1c(=S)[nH]c2c(Cl)cc(Cl)cc2c1=O,> 100,> 100,78.8,> 100,> 100,> 100,> 100,> 100,> 100,> 100,> 100,> 100,> 100,,
CCOC(=O)Cc1nc2nn(Cc3ccccc3)cc2c(=O)[nH]1,> 100,> 100,> 100,> 100,> 100,> 100,> 100,,> 100,> 100,> 100,> 100,> 100,> 100,
OC1OC(c2ccc[nH]2)C(F)(F)C(F)(F)C1(F)F (stereo not drawn),> 100,> 100,> 100,> 100,> 100,> 100,> 100,> 100,> 100,> 100,> 100,> 100,,> 100,
CCOP(=O)(CCC(O)CNc1nc(N)nc(Cl)c1N=Nc1ccc(Cl)cc1)OCC (stereo not drawn),48.4,46.9,33.3,> 100,49.3,,,29.7,30.2,27.4,24.3,40.3,37.4,27.7,50.3
Cc1c(C(=O)Nc2ccc(Cl)c(C(F)(F)F)c2)oc2cc(O)ccc2/c1=N\NC(N)=S,> 100,,> 100,,> 100,> 100,,,> 100,> 100,> 100,> 100,> 100,> 100,> 100
CC1=C/C(=N\N(C)C)C(C(O)(C(F)(F)F)C(F)(F)F)C(C)(C)C1 (stereo not drawn),> 100,> 100,> 100,> 100,> 100,> 100,,> 100,> 100,> 100,> 100,> 100,> 100,> 100,> 100
Clc1cccc(Cl)c1C1SCc2nc3cc4ccccc4cc3n21 (stereo not drawn),> 100,> 100,,> 100,> 100,,> 100,> 100,> 100,> 100,> 100,> 100,> 100,,
C#CCOC(=O)C(N)CS (stereo not drawn),> 100,> 100,> 100,> 100,> 100,,> 100,> 100,> 100,> 100,,> 100,> 100,> 100,
